{
  "source": "patent US10532066B2",
  "about": "“Surfactant lipids, compositions thereof, and uses thereof” (National Jewish Health, priority 2007, dated 2020)",
  "key": {"[1]": {"test_system": "TNF-α stimulated macrophages", "assay": "IkBα degradation in TNF-α stimulated macrophages", "format": "cell-based", "settings": "TNF-α 10 ng/ml", "protocol": "Protein synthesis was measured by determining [^3H]-Leucine incorporation into trichloroacetic acid precipitable material in the presence and absence of 200 μg/ml POPG. No changes in protein synthesis occurred over a 6 hr period in POPG treated U937 cells compared to untreated cells in 3 independent experiments. […] In these studies, macrophages were treated with TNF-α (10 ng/ml) and the degradation of IkBα was measured. […] Collectively, these studies indicate that the actions of the anionic lipids upon LPS signaling are specific."}, "[2]": {"biological_target": "T1, PstB2 (Saccharomyces cerevisiae, UniProt P53844)", "T1 construct": "made in house; host or cells: baculovirus-insect cell expression system", "T1 sequence (P53844 whole entry)": "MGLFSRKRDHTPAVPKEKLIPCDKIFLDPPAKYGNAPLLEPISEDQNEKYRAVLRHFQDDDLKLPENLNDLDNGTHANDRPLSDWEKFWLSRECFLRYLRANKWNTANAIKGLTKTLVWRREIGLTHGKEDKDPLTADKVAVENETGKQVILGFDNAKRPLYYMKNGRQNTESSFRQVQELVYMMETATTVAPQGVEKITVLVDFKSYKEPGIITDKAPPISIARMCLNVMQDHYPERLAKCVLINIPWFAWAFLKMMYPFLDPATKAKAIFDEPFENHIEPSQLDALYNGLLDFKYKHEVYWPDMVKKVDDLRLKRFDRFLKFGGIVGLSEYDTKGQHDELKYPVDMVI", "assay": "PstB2 control protein binding to solid phase POPG", "parameters": "species or system yeast", "settings": "PstB2 1 μg/ml", "excerpt": "FIG. 16. MD-2 preferentially binds POPG."}, "[3]": {"biological_target": "T2, MD-2 binding to sTLR4 (Homo sapiens, UniProt Q9Y6Y9)", "T2 construct": "made in house; host or cells: baculovirus-insect cell expression system", "T2 sequence (Q9Y6Y9 19-160)": "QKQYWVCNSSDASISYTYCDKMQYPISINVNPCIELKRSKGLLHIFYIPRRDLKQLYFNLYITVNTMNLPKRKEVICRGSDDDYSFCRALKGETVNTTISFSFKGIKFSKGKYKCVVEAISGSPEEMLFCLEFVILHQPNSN", "assay": "Phospholipid competition for MD-2-sTLR4 binding", "protocol": "CD14 (2 μg) or sTLR4 (100 ng) in aliquots of 20 μl of buffer B were pipeted onto a 96-well plate, and the solvent evaporated using a warm air dryer. […] The amount of bound LBP or MD-2 was detected using specific antibodies."}, "[4]": {"biological_target": "T3, TLR1 (Mus musculus, UniProt Q9EPQ1)", "T3 construct": "endogenous in cells; host or cells: RAW 264.7", "T3 sequence (Q9EPQ1 26-795)": "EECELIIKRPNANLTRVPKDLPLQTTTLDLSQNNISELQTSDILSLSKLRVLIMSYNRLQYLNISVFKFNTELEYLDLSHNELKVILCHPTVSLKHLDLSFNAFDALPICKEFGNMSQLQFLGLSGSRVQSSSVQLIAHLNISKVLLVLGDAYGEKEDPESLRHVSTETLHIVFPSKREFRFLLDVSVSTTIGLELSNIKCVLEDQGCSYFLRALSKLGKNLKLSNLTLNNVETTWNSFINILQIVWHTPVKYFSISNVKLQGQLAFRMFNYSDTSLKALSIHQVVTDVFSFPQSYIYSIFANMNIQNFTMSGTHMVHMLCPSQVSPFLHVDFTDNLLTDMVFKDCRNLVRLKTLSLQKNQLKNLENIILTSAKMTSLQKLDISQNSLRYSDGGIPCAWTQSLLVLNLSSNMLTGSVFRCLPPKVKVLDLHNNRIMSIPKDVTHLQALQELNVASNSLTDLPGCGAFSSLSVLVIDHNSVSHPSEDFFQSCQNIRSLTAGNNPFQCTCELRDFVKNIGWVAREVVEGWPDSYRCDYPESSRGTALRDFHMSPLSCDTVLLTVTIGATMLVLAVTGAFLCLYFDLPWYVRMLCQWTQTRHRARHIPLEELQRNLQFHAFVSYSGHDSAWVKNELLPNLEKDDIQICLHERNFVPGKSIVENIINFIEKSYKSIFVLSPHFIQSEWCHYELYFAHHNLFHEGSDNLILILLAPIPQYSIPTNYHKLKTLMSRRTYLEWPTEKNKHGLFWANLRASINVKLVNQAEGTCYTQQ", "assay": "TLR agonist TNFα production in RAW 264.7 cells, TLR1", "format": "cell-based", "settings": "Pam3Cys, 24 h", "protocol": "(§1) In this experiment, multiple TLRs were stimulated with defined TLR agonists for 24 h and the TNFα production was measured. In each case, the maximal stimulation by agonist is set at 100% and the antagonism by POPG is expressed as the relative % response. The Controls consist of no treatment, or treatment with POPG in the absence of agonist as indicated. The agonists for the TLRs consist of Pam3Cys for TLR1/2, Mycoplasma pneumoniae membranes as an agonist for TLR2, mycoplasma derived MALP2 as an agonist for TLR 2/6, double stranded RNA (poly IC) for TLR3, Gram-negative lipopolysaccharide for TLR4, and CpG rich DNA as an agonist for TLR9. The TLR4 panel also contains the antagonist polymyxin B (PB) for comparison with POPG."}, "[5]": {"biological_target": "T4, TLR6 (Mus musculus, UniProt Q9EPW9)", "T4 construct": "endogenous in cells; host or cells: RAW 264.7", "T4 sequence (Q9EPW9 28-795)": "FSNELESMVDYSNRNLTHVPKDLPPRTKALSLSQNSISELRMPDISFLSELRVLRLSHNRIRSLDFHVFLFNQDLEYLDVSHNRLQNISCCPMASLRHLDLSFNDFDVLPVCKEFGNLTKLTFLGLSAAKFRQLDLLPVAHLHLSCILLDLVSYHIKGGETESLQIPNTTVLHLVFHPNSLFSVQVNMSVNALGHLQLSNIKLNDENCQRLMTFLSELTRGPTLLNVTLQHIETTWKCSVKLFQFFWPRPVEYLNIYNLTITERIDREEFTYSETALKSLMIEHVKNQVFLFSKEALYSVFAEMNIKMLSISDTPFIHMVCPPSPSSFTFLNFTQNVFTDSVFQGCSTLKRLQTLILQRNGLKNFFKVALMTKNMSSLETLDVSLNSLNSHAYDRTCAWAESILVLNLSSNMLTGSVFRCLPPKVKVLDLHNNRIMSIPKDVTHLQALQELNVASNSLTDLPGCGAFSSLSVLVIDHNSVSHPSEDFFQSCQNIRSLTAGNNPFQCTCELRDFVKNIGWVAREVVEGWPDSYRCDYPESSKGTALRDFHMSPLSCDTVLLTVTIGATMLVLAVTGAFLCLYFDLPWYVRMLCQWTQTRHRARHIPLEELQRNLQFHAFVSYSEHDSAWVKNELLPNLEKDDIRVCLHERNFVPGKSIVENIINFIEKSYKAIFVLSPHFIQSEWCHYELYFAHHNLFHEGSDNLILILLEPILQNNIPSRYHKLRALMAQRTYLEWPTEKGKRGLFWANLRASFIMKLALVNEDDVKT", "assay": "TLR agonist TNFα production in RAW 264.7 cells, TLR6", "format": "cell-based", "settings": "MALP2, 24 h", "protocol": "as §1"}, "[6]": {"biological_target": "T5, Toll-like receptor 3 (Homo sapiens, UniProt O15455)", "T5 construct": "endogenous in cells; host or cells: primary normal human bronchial epithelial (NHBE) cells", "T5 sequence (O15455 24-904)": "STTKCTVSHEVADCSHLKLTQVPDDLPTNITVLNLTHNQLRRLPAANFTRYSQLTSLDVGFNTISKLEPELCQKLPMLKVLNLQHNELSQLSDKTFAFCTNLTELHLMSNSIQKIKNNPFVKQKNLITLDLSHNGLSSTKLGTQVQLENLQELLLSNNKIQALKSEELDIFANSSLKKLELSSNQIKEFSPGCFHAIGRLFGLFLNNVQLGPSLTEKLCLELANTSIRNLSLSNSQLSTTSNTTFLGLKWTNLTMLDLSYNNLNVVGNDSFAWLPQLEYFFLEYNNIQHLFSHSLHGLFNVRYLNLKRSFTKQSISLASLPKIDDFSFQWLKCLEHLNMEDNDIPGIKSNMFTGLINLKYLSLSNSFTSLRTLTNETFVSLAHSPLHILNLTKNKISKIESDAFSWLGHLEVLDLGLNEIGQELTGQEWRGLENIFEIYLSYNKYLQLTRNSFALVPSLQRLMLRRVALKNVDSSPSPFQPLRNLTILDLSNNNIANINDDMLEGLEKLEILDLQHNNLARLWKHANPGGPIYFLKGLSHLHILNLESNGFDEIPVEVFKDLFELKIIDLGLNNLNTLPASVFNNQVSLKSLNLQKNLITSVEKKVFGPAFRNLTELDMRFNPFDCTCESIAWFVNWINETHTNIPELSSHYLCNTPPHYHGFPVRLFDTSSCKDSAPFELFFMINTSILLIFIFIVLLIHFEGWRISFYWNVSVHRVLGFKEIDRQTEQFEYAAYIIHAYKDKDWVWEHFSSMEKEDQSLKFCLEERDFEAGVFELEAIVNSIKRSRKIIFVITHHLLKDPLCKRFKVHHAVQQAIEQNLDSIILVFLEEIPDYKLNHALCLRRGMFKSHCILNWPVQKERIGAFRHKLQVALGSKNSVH", "assay": "polyIC IL-8 production in NHBE cells", "format": "cell-based", "settings": "24 hr", "protocol": "In this experiment, NHBE cells were stimulated with double stranded RNA (polyIC) and the IL-8 production was measured after an interval of 24 hr. The maximal stimulation by agonist is set at 100% and the antagonism by POPG is expressed as the relative % response. The Controls consist of no treatment, or treatment with POPG, in the absence of agonist as indicated."}, "[7]": {"test_system": "TLR7", "assay": "TLR agonist IL-8 production in primary human neutrophils, TLR7", "format": "cell-based", "settings": "polyU, 5-24 h", "protocol": "In this experiment, multiple TLRs were stimulated with defined TLR agonists for 5-24 h as indicated, and the IL-8 production was measured. In each case the maximal stimulation by agonist is set at 100% and the antagonism by POPG is expressed as the relative % response. The Controls consist of no treatment, or treatment with POPG, in the absence of agonist as indicated. The agonists for the TLRs consist of Pam3Cys for TLR1/2, double stranded RNA (poly IC) for TLR3, Gram-negative lipopolysaccharide (LPS) for TLR4, and single stranded RNA (polyU) for TLR7/8."}, "[8]": {"test_system": "multiple TLRs", "assay": "Activation of RAW 264.7 macrophages by multiple TLRs (TNFα, Example 8)", "format": "cell-based", "settings": "200 ug/ml POPG, 5 hours"}, "[9]": {"test_system": "Respiratory Syncytial Virus (RSV)", "assay": "RSV replication in NHBE cells (anti-RSV antibody staining)", "format": "cell-based", "settings": "multiplicity 3, 72 h, POPG 200 ug/ml", "protocol": "Monolayers of BEAS2B and NHBE cells were infected with RSV at a multiplicity of 3 for 72 h. Infections were performed on cells in either the absence or the presence of POPG (200 ug/ml). The cell monolayers were fixed and stained with goat anti-human RSV antibody conjugated with horseradish peroxidase. The presence of the antibody was detected with diaminobenzamidine. Controls consisted of cell layers not exposed to the virus or exposed to POPG in the absence of virus as indicated."}, "[10]": {"test_system": "RSV", "assay": "RSV plaque progression in Hep2 monolayers, lipid in agar overlay", "format": "cell-based, Respiratory Syncytial Virus (RSV)", "settings": "lipid in agar overlay 5 hours after virus, POPG 200-500 ug/ml, POPC 500 ug/ml, 5 days", "protocol": "Monolayers of Hep2 cells were subjected to RSV infection at levels that produce ca 100 plaques per well in quantitative plaque assays. The virus was incubated with the cells for 5 hours prior to agar overlay. The agar overlays contained either no additions, or POPG (200-500 ug/ml) or POPC (500 ug/ml).\nThe effects of POPG upon plaque formation as shown in Panel a of FIG. 39 were quantified in 3 independent experiments and are presented in this figure. The left panel of FIG. 40 provides the numbers of definite, and minute indefinite plaques formed in the absence and presence of POPG (200-500 ug/ml) as indicated. The right panel of FIG. 40 provides the numbers of definite plaques observed in the absence and presence of either POPG or POPC (200-500 ug/ml) as indicated."}},
  "note": "“Also recorded” adds a separate entry of the source.",
  "data": [
    {"smiles": "CCCCCCCC/C=C\\CCCCCCCC(=O)O[C@H](COC(=O)CCCCCCCCCCCCCCC)COP(=O)(O)OCC(O)CO", "note": "(some centres unmarked) [POPG, palmitoyl-oleoyl-phosphatidylglycerol]", "values": [
      {"measurement": "IkBα degradation after TNF-α stimulation", "setting": "[1]", "value": "failed to alter"},
      {"measurement": "binding to PstB2", "setting": "[2]", "value": "not"},
      {"measurement": "inhibition of the MD-2/TLR4 interaction", "setting": "[3]; lipid competitor up to 200 μg/ml", "value": "approximately 75%"},
      {"measurement": "inhibition of the MD-2/TLR4 interaction", "setting": "[3]; low levels of lipid competitor (20 μg/ml)", "value": 40, "unit": "%"},
      {"measurement": "activity of TLR1 (TNFα production)", "setting": "[4]", "value": "inhibits"},
      {"measurement": "activity of TLR6 (TNFα production)", "setting": "[5]", "value": "inhibits"},
      {"measurement": "activity of TLR3 (IL-8 production)", "setting": "[6]", "value": "inhibits"},
      {"measurement": "activity of TLR7 (IL-8 production)", "setting": "[7]", "value": "inhibits"},
      {"measurement": "activation of RAW 264.7 macrophages by multiple TLRs (TNFα)", "setting": "[8]", "value": "inhibits activation"},
      {"measurement": "viral replication", "setting": "[9]", "value": "prevents viral replication"},
      {"measurement": "progression of RSV infection (plaques)", "setting": "[10]", "value": "arrests the progression; also recorded: indefinite minute plaques"}
    ]}
  ]
}
